SMILES strings stand for the structures. Residues, ends and D or L forms follow the SMILES beside them.

The term IC50 denotes the concentration that gives 50% inhibition. One may read the Kd as the free concentration of one partner at which half of the binding sites on the other are occupied at equilibrium, for simple one-to-one binding.

One test has as its target T1, KPNA4 ARM Major (Homo sapiens, UniProt O00629).
T1 construct: 60-487; GST (cleaved yes); made in house; host or cells: Escherichia coli BL21-Gold(DE3)
Briefly: FP displacement assay, KPNA4 ARM major pocket. The test is classed as binding. Particulars: for Kd: major pocket probe FITC-MYC 5 nM, 50 mM sodium phosphate pH 7.4, room temperature, at least three technical replicates, read-out: KD values ± SEM. The protocol:
(§1) FP experiments were performed as described previously (Kliche et al, [2021]). Shortly, in order to monitor the binding event, FITC‐labelled peptides were used (excitation 495 nm, emission: 535 nm) and the FP signal was recorded in mP on a SpectraMax iD5 Multi‐Mode Microplate Reader (Molecular Devices) by measuring the emitted light in two angels. The measurements were performed at room temperature and prepared in nonbinding black half area 96‐well microplates (Corning®; 50 μl/well). For measuring direct binding, that is saturation curves, a 1:1 dilution series of protein domain (25 μl/well) was generated in 50 mM sodium phosphate buffer pH 7.4 and the measurement performed with 5 nM FITC‐labelled peptide (25 μl/well). The buffer‐corrected values were subsequently plotted with PRISM and fitted to the quadratic equation (Gianni et al, [2005]).
(§2) The 1:1 dilution series in this experiment was performed with the unlabelled peptide in 50 mM sodium phosphate buffer pH 7.4, so that each well‐contained unlabelled peptide (25 μl) at a certain concentration and pre‐formed complex (25 μl). The KD values of this indirectly monitored binding event were calculated as described previously (Nikolovska‐Coleska et al, [2004]). All measurements were at least in technical triplicates as well as biological duplicates when indicated. An amplitude shift between repeat measurements in the displacement experiments was occasionally observed due to variations in the protein preparations. If that was the case, the “active” protein concentration was back‐calculated according to the quadratic equation from the saturation curves performed in parallel. By comparing the active protein concentrations in the complex between different protein preparations, the amplitude was normalised.

Another test deals with T2, KPNA4 ARM minor (Homo sapiens, UniProt O00629).
T2 construct: 60-487; GST (cleaved yes); made in house; host or cells: Escherichia coli BL21-Gold(DE3)
Briefly: FP displacement assay, KPNA4 ARM minor pocket. The test is classed as binding. The conditions noted are these: for Kd: minor pocket probe FITC-NCOR2 5 nM, 50 mM sodium phosphate pH 7.4, room temperature, at least three technical replicates, read-out: KD values ± SEM. The protocol: as §1, §2

For the next test, the system named is KPNA4 ARM. Briefly: Phosphomimetic ProP-PD selection, KPNA4 ARM. The test is classed as binding, human. Particulars: phosphomimetic enrichment score of the wild-type/phosphomimetic (E) pair at the phosphosite, PM_HD2 phage selection; same score in the major and minor pocket; P-value in brackets not taken.
The target in test [1] is T3, GGA1 VHS (Homo sapiens, UniProt Q9UJY5).
T3 construct: GGA1_VHS__Q9UJY5_1_157; GST (cleaved yes); made in house; host or cells: Escherichia coli BL21-Gold(DE3)
T3 sequence (Q9UJY5 1-157): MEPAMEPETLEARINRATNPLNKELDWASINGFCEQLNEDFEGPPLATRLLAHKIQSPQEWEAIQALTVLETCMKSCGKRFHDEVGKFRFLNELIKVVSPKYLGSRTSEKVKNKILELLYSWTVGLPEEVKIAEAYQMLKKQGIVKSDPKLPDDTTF
Briefly: FP displacement assay, GGA1 VHS. The test is classed as binding. The conditions noted are these: FP displacement, probe FITC-IGF2R 5 nM, 50 mM sodium phosphate pH 7.4, room temperature; at least three technical replicates; read-out: KD values ± SEM. The protocol: as §1, §2

For test [2], the target named is T3, GGA1 VHS. Briefly: Phosphomimetic ProP-PD selection, GGA1 VHS. Particulars: phosphomimetic enrichment score of the wild-type/phosphomimetic (E) pair at the phosphosite, PM_HD2 phage selection; positive = phosphomimetic enhances binding; P-value in brackets not taken. The protocol:
Selections using the PM_HD2 phage library were performed as described previously with minor modification to the original protocol. The corresponding tag protein (either GST or MBP) was first used during negative selections. Selections were run for 4 days. • Bait and tag proteins (10–15 μg in 100 μl PBS) were immobilised in 96‐well MaxiSorb plate (NUNC) o.n. at 4°C. • Escherichia coli OmniMax bacteria were grown in 2YT medium supplemented with tetracycline (100 μg/ml) at 37°C and 200 rpm. • Plates with immobilised bait/tag proteins were blocked with 0.5% BSA in PBS for 1 h at 4°C. • Phage library (10 μl/well) was prepared by diluting 10× with PBS and adding one‐fourth of the volume of PEG/NaCl. For phage precipitation, prepared library was incubated for 10 min on ice followed by centrifugation for 10 min at 10,000 × g at 4°C. […]
Based on the results from phage pool ELISAs, samples from selection Day 3 and 4 were selected for NGS, as described previously (Benz et al, [2022]). • Peptide coding regions were amplified and dual‐barcoded by PCR. […] From the columns, samples were eluted with 30 μl TE (10 mM Tris–HCl, 1 mM EDTA. pH 7.5) buffer and quantified with Quant‐iT PicoGreen dsDNA Assay Kit. • Samples were sequenced on MiSeq (MSC 2.5.0.5/RTA 1.18.54) with a 151 nt (Read1) setup using “Version3” chemistry. […]

Test [3] concerns the target T3, GGA1 VHS. Briefly: ITC, GGA1 VHS. It counts as binding. Details: Ka: unit not given beside the values.

T1 sequence (O00629 60-487): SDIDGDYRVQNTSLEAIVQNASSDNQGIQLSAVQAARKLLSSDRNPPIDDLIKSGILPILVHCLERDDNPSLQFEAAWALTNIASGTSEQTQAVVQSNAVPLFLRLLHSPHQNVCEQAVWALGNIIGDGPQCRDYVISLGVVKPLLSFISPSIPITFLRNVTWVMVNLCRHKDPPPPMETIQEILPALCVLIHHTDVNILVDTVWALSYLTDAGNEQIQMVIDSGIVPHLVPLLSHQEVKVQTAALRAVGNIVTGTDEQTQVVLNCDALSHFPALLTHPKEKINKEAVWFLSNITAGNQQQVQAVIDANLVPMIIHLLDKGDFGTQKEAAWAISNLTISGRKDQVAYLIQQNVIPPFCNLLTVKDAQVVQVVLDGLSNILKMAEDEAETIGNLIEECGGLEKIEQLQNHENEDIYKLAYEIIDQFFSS
T2 sequence (O00629 60-487): as above

In the case of `CC(=O)N[C@@H](CC(N)=O)C(=O)N[C@@H](Cc1ccc(O)cc1)C(=O)N[C@@H](C)C(=O)N1CCC[C@H]1C(=O)N1CCC[C@H]1C(=O)N[C@H](C(=O)N[C@@H](CCCCN)C(=O)N[C@@H](CCCNC(=N)N)C(=O)N[C@@H](CCC(=O)O)C(=O)N[C@@H](CCCNC(=N)N)C(=O)N[C@@H](CCC(=O)O)C(=O)N[C@@H](CO)C(=O)N[C@@H](CO)C(=O)N[C@@H](CC(C)C)C(=O)N[C@H](C(=O)N[C@@H](CCC(N)=O)C(N)=O)[C@@H](C)O)C(C)C` [RANBP3_114–129 E (p + 5)] (Ac-NYAPPVKRERESSLTQ-NH2), the IC50 turned out to be 7.1 ± 0.5 µM on KPNA4 ARM Major (Fig 3E, KPNA4 ARM major, technical triplicates, read-out: IC50 values of displacement curves, with SEM) and 290 ± 16 µM at KPNA4 ARM minor (Fig 3E, KPNA4 ARM minor, technical triplicates, read-out: IC50 values of displacement curves, with SEM). In addition, the Kd came out at 0.8 ± 0.03 µM at KPNA4 ARM Major and 61 ± 2 µM at KPNA4 ARM minor. Further, the PES in the test with KPNA4 ARM is −7 (0.00012).

On to `CC(=O)N[C@@H](CC(=O)O)C(=O)N[C@H](C(=O)N[C@@H](CCC(=O)O)C(=O)N[C@@H](Cc1c[nH]cn1)C(=O)NCC(=O)NCC(=O)N[C@@H](CCCCN)C(=O)N[C@@H](CCCNC(=N)N)C(=O)N[C@@H](CCC(=O)O)C(=O)N[C@@H](CCCNC(=N)N)C(=O)N[C@@H](CC(C)C)C(=O)N[C@H](C(=O)N1CCC[C@H]1C(=O)N[C@H](C(=O)N[C@@H](CO)C(=O)N[C@@H](Cc1ccc(O)cc1)C(N)=O)C(C)C)[C@@H](C)O)C(C)C` [SQSTM1_258–272 E] (Ac-DVEHGGKRERLTPVSY-NH2), for which the Kd at KPNA4 ARM Major is 5.3 ± 0.4 µM; at KPNA4 ARM minor, 41 ± 2 µM. Besides, in the test on KPNA4 ARM, the PES is on record as −3 (0.0096).

As for `CC(=O)N[C@@H](CCC(=O)O)C(=O)N[C@H](C(=O)N[C@@H](Cc1ccc(O)cc1)C(=O)N[C@@H](Cc1ccc(O)cc1)C(=O)N[C@@H](CC(C)C)C(=O)N[C@@H](CO)C(=O)N[C@@H](CC(=O)O)C(=O)N[C@@H](CCC(=O)O)C(=O)N1CCC[C@H]1C(=O)N[C@@H](CC(C)C)C(=O)N[C@@H](CC(C)C)C(=O)NCC(=O)N1CCC[C@H]1C(=O)N1CCC[C@H]1C(=O)N[C@H](C(=O)NCC(N)=O)C(C)C)[C@@H](C)O` [GTSE1_145–160 E] (Ac-ETYYLSDEPLLGPPVG-NH2), the Kd at GGA1 VHS [1] came to 199 ± 4 µM. Besides, the PES on GGA1 VHS [2] is 9 (0.00012).

`CC[C@H](C)[C@H](NC(=O)[C@H](CC(=O)O)NC(=O)[C@H](CC(=O)O)NC(=O)[C@H](CO)NC(=O)[C@@H](NC(=O)[C@@H]1CCCN1C(=O)[C@H](CO)NC(=O)[C@H](CCCCN)NC(=O)[C@H](Cc1ccc(O)cc1)NC(C)=O)[C@@H](C)O)C(=O)N[C@@H](CCC(=O)O)C(=O)N[C@@H](CC(C)C)C(=O)N[C@@H](CC(C)C)C(=O)N[C@@H](Cc1c[nH]cn1)C(=O)N[C@@H](CCC(=O)O)C(=O)N[C@@H](CO)C(=O)N[C@@H](CCC(N)=O)C(=O)N[C@@H](CO)C(N)=O` [RNF11_6–21 E] (Ac-YKSPTSDDIELLHESQS-NH2): the Kd on GGA1 VHS [1] was found to be 1000 µM; at GGA1 VHS [3] (ITC (iTC200), 50 mM sodium phosphate pH 7.4, 1 mM DTT, average of the runs, technical duplicates), 101 µM. The Ka on GGA1 VHS [3] (ITC single run: date 200220, injection 1) was found to be 10600; at GGA1 VHS [3] (ITC single run: date 200220, injection 2), 9350. On GGA1 VHS [2], the PES is given as 4.9 (0.009).

`CC(=O)NCC(=O)N[C@@H](C)C(=O)N[C@@H](CCC(=O)O)C(=O)N1CCC[C@H]1C(=O)N[C@@H](C)C(=O)N[C@@H](CC(C)C)C(=O)N[C@@H](CCCCN)C(=O)N[C@@H](CCCNC(=N)N)C(=O)N[C@@H](CO)C(=O)N[C@@H](Cc1c[nH]cn1)C(=O)N[C@@H](CO)C(=O)N[C@@H](CC(=O)O)C(=O)N[C@@H](CO)C(=O)N[C@@H](Cc1ccc(O)cc1)C(N)=O` [CDC25A114–125 E] (Ac-GAEPALKRSHSDSY-NH2): the results for the Kd at KPNA4 ARM Major and on KPNA4 ARM minor were 0.75 ± 0.03 µM and 2.3 ± 0.3 µM, respectively. For the same compound, in the test with KPNA4 ARM, the PES is 10 (0.000006).

`CC(=O)N[C@@H](CC(=O)O)C(=O)N[C@@H](CC(C)C)C(=O)N[C@@H](CC(C)C)C(=O)N[C@@H](CCC(=O)O)C(=O)N[C@@H](CO)C(=O)N1CCC[C@H]1C(=O)N[C@@H](CC(=O)O)C(=O)N[C@H](C(=O)NCC(=O)N[C@@H](CC(C)C)C(=O)N[C@@H](CC(C)C)C(=O)N[C@@H](CCCCN)C(=O)N[C@@H](CC(C)C)C(=O)N[C@@H](C)C(=O)N[C@@H](CO)C(=O)N[C@@H](Cc1ccc(O)cc1)C(N)=O)C(C)C` [JUN59–73 E] (Ac-DLLESPDVGLLKLASY-NH2): the Kd at GGA1 VHS [1] came out at 450 ± 50 µM. Besides, at GGA1 VHS [2], the PES is 3.6 (0.023).

For the origin of these results see PMC10333884, “Large‐scale phosphomimetic screening identifies phospho‐modulated motif‐based protein interactions” (Molecular Systems Biology, 2023).
